According to patent US20100278847A1, “MUTUALLY SUPPRESSIVE GENE/INHIBITOR COMBINATIONS FOR NON-ANTIBIOTIC SELECTION OF RECOMBINANT STRAINS” (priority 2007, published 2010):

Tests used:
DH5α = assay: Growth rate from exponential phase (OD550 over time); format: cell-based, E. coli; conditions: media containing 0-2 μM triclosan
Experimental: Growth rate was calculated from the exponential phase of growth, which was monitored as increased OD550 over time by the VERSAmax spectrophotometer (Molecular Devices). An overnight culture (16 h), standardized by OD550 to yield approximately 7×10^5 cfu/ml, was grown in 200 μl volumes per well in a 96-well plate for 24 h with agitation for 5 s every 5 min, when OD550 readings were taken. Triclosan dissolved in DMSO was added to give 0-2 μM Triclosan and 1% DMSO final concentrations.

DH5α/pFab = assay: Cell viability, SYTOX green staining flow cytometry; format: cell-based, E. coli; conditions: 0.5-2 μM triclosan, overnight culture
Experimental: DH5α/pFab were grown overnight in the absence or presence of 0.5-2 μM triclosan and subjected to SYTOX green staining flow cytometry, as previously described (Roth et al. 1997). DH5α/pUC19 was included as a control for green fluorescence of live and heat-treated dead cells. Samples were excited with a 488 nm air-cooled argon ion laser in the CyFlow SL flow cytometer (Partec GmbH). Threshold settings were enabled on forward scatter to exclude cell debris. The forward and side scatter dot plot was used to identify and gate cell populations. Fluorescence was measured at 520 nm Viable and dead cell populations were counted using the Partec FloMax software version 2.4e.

[1] = cited from earlier work

SMILES: Oc1cc(Cl)ccc1Oc1ccc(Cl)cc1Cl [triclosan]
- Triclosan concentration at which growth rates of pUCFA and pFab clones were highest (DH5α): 1 μM
- Proportion of green fluorescent (dead) cells in DH5α/pFab culture (DH5α/pFab): decreased with increasing triclosan concentrations
- Solubility in water [1]: poor solubility in water
